In US4156016A, “Indole compounds and process for their preparation” (Hoffmann-La Roche Inc., priority 1977, dated 1979):
Where two headings read alike, the source gives them in different places.

Columns and labels:
[1] = Toxicity (general statement)
serum PGF2α = test: Inhibition of prostaglandin formation: serum PGF2α by radioimmunoassay (rats); type: in vivo, male rats; conditions: for ED50: Rattus norvegicus, 1 h, rats
[2] = Gastric ulcer induction (rats); design: species or system male Wistar rats; conditions: rat, in vivo, po
Experimental: The test is a modification of that described by Brodie et al., Gastroenterology, 53, pages 604-610 (1967). Male Wistar rats (Royal Hart Laboratories) were deprived of food for 18 hours prior to testing. Tap water was permitted ad libitum. Test compounds were administered orally four hours to autopsy. The rats were sacrificed under ethyl ether anesthesia, opened along the ventral midline and the stomachs removed. The stomach was divided along the lesser curvature, everted, rinsed in saline, and examined for the presence of focal hemorrhage. Ulcers were rated on an all or none basis for incidence and, in addition, each stomach is graded for severity of ulcers formed. Ulcer scores: 0=none, 1=trace, 2=mild, 3=moderate, and 4=severe. The results of the ulcer scores obtained were subjected to statistical analysis by the student `t` test.

ADP induced aggregation = test: Inhibition of ADP-induced platelet aggregation (second wave) in human platelet-rich plasma; type: cell-based; conditions: for inhibition at 2.5 µM / inhibition at 5 µM / inhibition at 10 µM / inhibition at 20 µM / inhibition at 50 µM: Homo sapiens, Platelet, read-out: Percent Inhibition
Experimental: Venous blood was collected from human volunteers in siliconized 20 ml. […] Platelet rich plasma (PRP) was separated from the red blood cells by centrifugation at 180×g for 15 minutes at room temperature. Platelet poor plasma (PPP) was prepared by centrifuging PRP at 1000×g for 2 minutes.
Techniques established by Born et al., J. Physiol. […] PRP (1 ml.) was added to a siliconized cuvette containing a siliconized stirring bar and placed in a densitometer maintained at 37° C. and stirred at 1000 RPM. Various concentrations of test compounds were added in 50 μl of saline and incubated with PRP for 5 minutes. Aggregation was initiated by the addition of sufficient concentrations of ADP (Sigma Chemical Co.), epinephrine HCl (Parke, Davis & Co., Detroit, Michigan), or human mammary gland collagen (obtained from Roosevelt Hospital, N.Y.) to give about 60% of maximum aggregation response. The light transmission through PPP was used to determine maximum response. The percent inhibition of aggregation caused by the drug was calculated from the strip chart recordings at the point of maximum collagen response.

[3] = test system: Collagen-Induced Platelet Aggregation; test: Effect of compounds in whole blood: collagen-induced platelet aggregation after incubation in whole blood; type: cell-based, human; conditions: for Δ light transmission: mean of duplicate determinations; for inhibition at 1 µM / inhibition at 5 µM / inhibition at 10 µM / inhibition at 25 µM / inhibition at 50 µM / inhibition at 100 µM: read-out: percent inhibition
Experimental: Aliquots of citrated human blood (10 ml.) were exposed to different concentrations of the "nitrile" by mechanically shaking at room temperature for 5 minutes.

N#Cc1[nH]c2ccc(C(O)(C(F)(F)F)C(F)(F)F)cc2c1-c1ccccc1 [nitrile, 3-Phenyl-5-[2,2,2-trifluoro-1-hydroxy-1-(trifluoromethyl)ethyl]indole-2-carbonitrile]
toxicity (in words) [1]: low in toxicity | serum PGF2α (serum PGF2α; 1 mg/kg i.p., ± SE): 27 ± 2.9 ng/mL | serum PGF2α (serum PGF2α; 1 mg/kg p.o., ± SE): 28 ± 4.6 ng/mL | serum PGF2α (serum PGF2α; 3 mg/kg i.p., ± SE, p <0.05): 18 ± 1.5 ng/mL | serum PGF2α (serum PGF2α; 3 mg/kg p.o., ± SE): 19 ± 4.2 ng/mL | serum PGF2α (serum PGF2α; 10 mg/kg i.p., ± SE, p <0.01): 18 ± 2.9 ng/mL | serum PGF2α (serum PGF2α; 10 mg/kg p.o., ± SE, p <0.001): 12 ± 2.4 ng/mL | serum PGF2α (serum PGF2α; 30 mg/kg i.p., ± SE, p <0.001): 2 ± 1.6 ng/mL | serum PGF2α (serum PGF2α; 30 mg/kg p.o.): 0 ng/mL | serum PGF2α (serum PGF2α; 100 mg/kg i.p.): 0 ng/mL | serum PGF2α (serum PGF2α; 100 mg/kg p.o.): 0 ng/mL | ED50 (serum PGF2α; ip): 15 mg/kg | ED50 (serum PGF2α; po): 10 mg/kg | TD50 at 4 h [2]: > 250 mg/kg | Δ light transmission (ADP induced aggregation; 2.5 μM, Expt. I): 60 units | Δ light transmission (ADP induced aggregation; 2.5 μM, Expt. II): 54 units | Δ light transmission (ADP induced aggregation; 5 μM, Expt. I): 50 units | Δ light transmission (ADP induced aggregation; 5 μM, Expt. II): 44 units | Δ light transmission (ADP induced aggregation; 10 μM, Expt. I): 11 units | Δ light transmission (ADP induced aggregation; 10 μM, Expt. II): 14 units | Δ light transmission (ADP induced aggregation; 20 μM, Expt. I): 0 units | Δ light transmission (ADP induced aggregation; 20 μM, Expt. II): 0 units | Δ light transmission (ADP induced aggregation; 50 μM, Expt. I): 0 units | Δ light transmission (ADP induced aggregation; 50 μM, Expt. II): 0 units | inhibition at 2.5 µM (ADP induced aggregation; 2.5 μM, Expt. I): 0% | inhibition at 2.5 µM (ADP induced aggregation; 2.5 μM, Expt. II): 1.8% | inhibition at 5 µM (ADP induced aggregation; 5 μM, Expt. I): 16.7% | inhibition at 5 µM (ADP induced aggregation; 5 μM, Expt. II): 20% | inhibition at 10 µM (ADP induced aggregation; 10 μM, Expt. I): 18.6% | inhibition at 10 µM (ADP induced aggregation; 10 μM, Expt. II): 74.5% | inhibition at 20 µM (ADP induced aggregation; 20 μM, Expt. I): 100% | inhibition at 20 µM (ADP induced aggregation; 20 μM, Expt. II): 100% | inhibition at 50 µM (ADP induced aggregation; 50 μM, Expt. I): 100% | inhibition at 50 µM (ADP induced aggregation; 50 μM, Expt. II): 100% | IC50 (ADP induced aggregation; incubation in human citrated platelet-rich plasma): 7 µM | Δ light transmission ([3]; 1 μM, Expt. I): 18 units | Δ light transmission ([3]; 1 μM, Expt. II): 19 units | Δ light transmission ([3]; 1 μM, Expt. III): 27 units | Δ light transmission ([3]; 5 μM, Expt. I): 14 units | Δ light transmission ([3]; 5 μM, Expt. II): 15 units | Δ light transmission ([3]; 5 μM, Expt. III): 20 units | Δ light transmission ([3]; 10 μM, Expt. I): 13 units | Δ light transmission ([3]; 10 μM, Expt. II): 13 units | Δ light transmission ([3]; 10 μM, Expt. III): 17 units | Δ light transmission ([3]; 25 μM, Expt. I): 9 units | Δ light transmission ([3]; 25 μM, Expt. II): 10 units | Δ light transmission ([3]; 25 μM, Expt. III): 13 units | Δ light transmission ([3]; 50 μM, Expt. I): 8 units | Δ light transmission ([3]; 50 μM, Expt. II): 9 units | Δ light transmission ([3]; 50 μM, Expt. III): 10 units | Δ light transmission ([3]; 100 μM, Expt. I): 4 units | Δ light transmission ([3]; 100 μM, Expt. II): 4 units | Δ light transmission ([3]; 100 μM, Expt. III): 6 units | inhibition at 1 µM ([3]; Homo sapiens, Platelet, 1 μM, Expt. I): 10% | inhibition at 1 µM ([3]; Homo sapiens, Platelet, 1 μM, Expt. II): 9.5% | inhibition at 1 µM ([3]; Homo sapiens, Platelet, 1 μM, Expt. III): 10% | inhibition at 5 µM ([3]; Homo sapiens, Platelet, 5 μM, Expt. I): 30% | inhibition at 5 µM ([3]; Homo sapiens, Platelet, 5 μM, Expt. II): 29% | inhibition at 5 µM ([3]; Homo sapiens, Platelet, 5 μM, Expt. III): 33% | inhibition at 10 µM ([3]; Homo sapiens, Platelet, 10 μM, Expt. I): 35% | inhibition at 10 µM ([3]; Homo sapiens, Platelet, 10 μM, Expt. II): 38% | inhibition at 10 µM ([3]; Homo sapiens, Platelet, 10 μM, Expt. III): 43% | inhibition at 25 µM ([3]; Homo sapiens, Platelet, 25 μM, Expt. I): 55% | inhibition at 25 µM ([3]; Homo sapiens, Platelet, 25 μM, Expt. II): 52% | inhibition at 25 µM ([3]; Homo sapiens, Platelet, 25 μM, Expt. III): 57% | inhibition at 50 µM ([3]; Homo sapiens, Platelet, 50 μM, Expt. I): 60% | inhibition at 50 µM ([3]; Homo sapiens, Platelet, 50 μM, Expt. II): 57% | inhibition at 50 µM ([3]; Homo sapiens, Platelet, 50 μM, Expt. III): 67% | inhibition at 100 µM ([3]; Homo sapiens, Platelet, 100 μM, Expt. I): 80% | inhibition at 100 µM ([3]; Homo sapiens, Platelet, 100 μM, Expt. II): 81% | inhibition at 100 µM ([3]; Homo sapiens, Platelet, 100 μM, Expt. III): 80% | IC50 ([3]; Homo sapiens, Platelet, incubation in whole blood): 25 µM
